In experiment [1] the test system is HL60 cells. As to the kind of experiment: Antioxidant effect against menadione oxidative stimulus, CM-H2DCFDA fluorescence. Particulars: concentrations as in FIGS. 5-7. The experiment is classed as cell-based, human.
Experimental: The human lymphoblastoid HL60 and the proerythoblastoid K562 cell lines were used, grown at 37° C. in RPMI 1640 medium (Invitrogen, Gibco, Milano, Italy), supplemented with 10% fetal bovine serum, 5 μg/ml penicillin, 5 μg/ml streptomycin, 2 mM glutamine, and routinely subcultured three times a week. Cells were treated either with menadione alone (control), with NAC only, with NAC+Se-methionine (SeMet), with NAC+Mel, or with NAC+SeMet+Mel. In cases of SeMet supplementation, such supplementation was performed two days before experiments, by using a SeMet solution in buffer (concentrations as indicated in description of FIGS. 4-7). In cases of Mel supplementation, such supplementation was performed 20 hours before experiments, by using a solution in ethanol (concentrations as indicated in description of FIGS. 4-7). Ethanol concentration in growth medium was <1.3% and controls only with this solvent were also grown in parallel.
The effect of NAC, Mel, SeMet and of a combination of these substances in protecting the cells against an oxidative stimulus was detected by using the fluorescent probe 5-(and-6)-chloromethyl-2′,7′-dichlorodihydrofluorescein diacetate, acetyl ester (CM-H2DCFDA) (Invitrogen, Molecular Probes). CM-H2DCFDA is a cell-permeant indicator for reactive oxygen species that is not fluorescent until removal of its acetate groups by intracellular esterases, and oxidation within the cell. The increase in hydroperoxides (mainly H2O2) within the cell is thus monitored by increase in fluorescence. […]
Cells were counted, and care was taken to keep the ratio between cells and the fluorescent probe constant. […] Two μ1 of a solution of CM-H2DCFDA in DMSO were then added and the fluorescence intensity read versus time. After the first 200 sec of reading, a proper aliquot of NAC solution in phosphate buffer (concentrations as indicated in description of FIGS. 4-7), and 10 μl of a 0.1 M solution of menadione in ethanol were added, and the fluorescence intensity reading continued. During intensity readings, samples were subjected to continuous mild stirring. […]
Experiment [2] has as its system patients suffering from fatigue. The experiment in a line: Fatigue trial, rated intensity before and after treatment. Format: in vivo, human. The settings on record: group of 20 patients. The text has this:
In a method, conducted in a similar manner to that described in the previous Examples 6 and 7, and in accordance with embodiments of this disclosure a medical product comprising NAC, SeMet and Mel in accordance with embodiments was given to a plurality of groups of patients in the treatment of fatigue. The method of treating fatigue comprises administering to a patient in need thereof, a medical product consisting of one or more excipients and active agents consisting of (i) N-acetyl-L-cysteine; (ii) selenium in the form of selenomethionine; and (iii) melatonin and/or physiologically acceptable salts thereof. Fatigue may be related and due to anxiety, and/or to sporadic insomnia or have other independent causes. Fatigue is defined as a state of tiredness that remain despite rest or sleep, and that tend to impair cognitive and/or physical ability and performance.
In a trial the NAC, SeMet and Mel medical product, herein also called NAC-factor 3, was administered to a group of patients in a set-up to compare the effect of placebo, NAC and the medical product consisting of NAC, SeMet and Mel in treatment of fatigue.
The patients rated their experienced intensity of fatigue before and after being exposed to medication with one of placebo, NAC and the medical product consisting of NAC, SeMet and Mel (in short NACSeMel), respectively. The subjective intensity was rated by the patients using a 5 graded verbal rating scale ranging from None/Ignorable=0, Slight=1, Moderate=2, Great=3, Excruciating=4, where the corresponding numbers 0-4 are used to illustrate the responses in accompanying graphs.
In studying the results of the rating, the change in rating that the group delivered was expressed as a measure of the group's relative position RP in order to assess whether there was a systematic change in position on the rating scale. The relative position, i.e. the change in rating is negative if the rating indicates less intensity after exposure to treatment compared to before treatment, and positive if the rating indicates higher intensity after exposure to treatment. A range of values for the relative position RP was calculated for a 95% confidence interval CI.

For experiment [3], the system named is patients suffering from recurrent sporadic social anxiety. As to the kind of experiment: Anxiety trial, rated pain intensity before and after treatment. Format: in vivo, human. The settings on record: n = 12. The procedure: (§1) In a trial the NAC, SeMet and Mel medical product, herein also called NAC-factor 3, was administered to the groups of patients in a set-up to compare the anxiolytic effect of placebo, NAC and the medical product consisting of NAC, SeMet and Mel in anxiolysis. The groups of patients were ordered according to the following different causes of anxiety: Sporadic anxiety (i.e. healthy patients) (SA), Social phobia (SP), Agoraphobia (AP), Panic disorder (PD), Generalized anxiety disorder (GAD), Obsessive-compulsive disorders (OCD), and Posttraumatic stress disorder (PTSD).
(§2) The patients rated their experienced intensity of pain from the anxiety before and after being exposed to medication with one of placebo, NAC and the medical product consisting of NAC, SeMet and Mel (in short NACSeMel), respectively. The subjective pain-intensity was rated by the patients using a 5 graded verbal rating scale ranging from None/Ignorable=0, Slight=1, Moderate=2, Great=3, Excruciating=4, where the corresponding numbers 0-4 are used to illustrate the responses in accompanying graphs.
(§3) In studying the results of the rating, the change in rating that the group delivered was expressed as a measure of the group's relative position RP in order to assess whether there was a systematic change in position on the rating scale. The relative position, i.e. the change in rating is negative if the rating indicates less pain intensity after exposure to treatment compared to before treatment, and positive if the rating indicates higher pain intensity after exposure to treatment. A range of values for the relative position RP was calculated for a 95% confidence interval CI.
(§4) The corresponding treatment design as described above was used with patients rating the pain intensity for specific causes of anxiety, viz. Recurrent sporadic social anxiety, Social Phobia/Agoraphobia, Panic disorder, Generalized anxiety disorder, Obsessive compulsive disorder and Posttraumatic stress disorder. The results are presented in the following Table 3 and in FIG. 11-FIG. 16.

Experiment [4] relates to patients suffering from generalized anxiety disorder. The description is as above. The experiment is classed as in vivo, human. Particulars: n = 8. The protocol:
as §1, §2, §3, §4

Experiment [5] has as its system patients suffering from posttraumatic stress disorder. The experiment is described as above. The experiment is classed as in vivo, human. The settings on record: n = 5. The protocol:
as §1, §2, §3, §4

Experiment [6] concerns patients suffering from panic disorder. The experiment is described as above. The experiment is classed as in vivo, human. Particulars: n = 7. The procedure:
as §1, §2, §3, §4

Experiment [7] relates to patients suffering from social phobia/agoraphobia. The experiment is described as above. The experiment is classed as in vivo, human. The settings on record: n = 6. The protocol:
as §1, §2, §3, §4

In experiment [8] the test system is patients suffering from obsessive compulsive disorder. The description is as above. The experiment is classed as in vivo, human. Particulars: n = 7. The procedure: as §1, §2, §3, §4
Experiment [9] relates to patients suffering from varying kinds of anxiety. The description is as above. Format: in vivo, human. Particulars: n = 20.
Source text: In a method in accordance with embodiments of this disclosure a medical product comprising NAC, SeMet and Mel in accordance with embodiments was given to a plurality of groups of patients in the treatment of anxiety. The method of treating an anxiety disorder comprises administering to a patient in need thereof, a medical product consisting of one or more excipients and active agents consisting of (i) N-acetyl-L-cysteine; (ii) selenium in the form of selenomethionine; and (iii) melatonin and/or physiologically acceptable salts thereof.
as §1, §2, §3

In experiment [10] the test system is patients suffering from sporadic insomnia. The experiment in a line: Sporadic insomnia trial, rated intensity before and after treatment. The experiment is classed as in vivo, human. Particulars: group of 24 patients.
Experiment [11] has as its system K562 cells. As to the kind of experiment: Antioxidant effect against menadione oxidative stimulus, CM-H2DCFDA fluorescence. The settings on record: 0.2 mM menadione, 0.4 mM NAC, 0.2 mM SeMet, 2 mM Mel (FIG. 4). Format: cell-based, human. The protocol: The human lymphoblastoid HL60 and the proerythoblastoid K562 cell lines were used, grown at 37° C. in RPMI 1640 medium (Invitrogen, Gibco, Milano, Italy), supplemented with 10% fetal bovine serum, 5 μg/ml penicillin, 5 μg/ml streptomycin, 2 mM glutamine, and routinely subcultured three times a week. Cells were treated either with menadione alone (control), with NAC only, with NAC+Se-methionine (SeMet), with NAC+Mel, or with NAC+SeMet+Mel. In cases of SeMet supplementation, such supplementation was performed two days before experiments, by using a SeMet solution in buffer (concentrations as indicated in description of FIGS. 4-7). […]
The effect of NAC, Mel, SeMet and of a combination of these substances in protecting the cells against an oxidative stimulus was detected by using the fluorescent probe 5-(and-6)-chloromethyl-2′,7′-dichlorodihydrofluorescein diacetate, acetyl ester (CM-H2DCFDA) (Invitrogen, Molecular Probes). […] The increase in hydroperoxides (mainly H2O2) within the cell is thus monitored by increase in fluorescence. […]
Cells were counted, and care was taken to keep the ratio between cells and the fluorescent probe constant. […] Two μ1 of a solution of CM-H2DCFDA in DMSO were then added and the fluorescence intensity read versus time. […] During intensity readings, samples were subjected to continuous mild stirring. […]

Setting [12] is: negative = less intensity after treatment.

Turning to `COc1ccc2[nH]cc(CCNC(C)=O)c2c1` [Mel, melatonin], the “oxidative response (slope of DCFDA fluorescence intensity increase) after menadione” value in experiment [1] is “unfavorable pro-oxidant effect”.
Consider `CC(=O)N[C@@H](CS)C(=O)O` [NAC, N-acetyl-L-cysteine], for which, in experiment [2], the “number of patients that rated increased level of fatigue” value worked out at 3 patients, the “number of patients that rated lower fatigue” value is given as 9 patients, the “number of patients that rated unchanged intensity of fatigue” value is recorded as 8 patients and the “patients that rated increased level of fatigue” value came out at 15%. In experiment [2], the “patients that rated lower fatigue” value stood at 45% and the “patients that rated unchanged intensity of fatigue” value was 40%. Further, the “relative position RP” value in experiment [2] (setting [12]) was −0.26 (95% CI −0.49 to −0.03). Further, in experiment [3], the “number of patients that rated lower” value was 9 patients, the “number of patients that rated unchanged level” value was 2 patients and the “relative position RP” value was “RP −0.46”. In addition, in experiment [4], the “number of patients that rated lower” value is 7 patients, the “number of patients that rated unchanged level” value came to 1 patients and the “relative position RP” value was “RP −0.81”. For the same compound, in [5], the “number of patients that rated lower” value is 3 patients, the “number of patients that rated unchanged level” value is reported as 2 patients and the “relative position RP” value was “RP −0.60”. In addition, in experiment [6], the “number of patients that rated lower” value amounted to 3 patients, the “number of patients that rated unchanged level” value is listed as 4 patients and the “relative position RP” value was “RP −0.35”. Moreover, in experiment [7], the “number of patients that rated lower” value is recorded as “↓3, ~3 patients”; the “number of patients that rated unchanged level” value is reported as “↓3, ~3 patients”; the “relative position RP” value is “RP −0.31”. In [8], the “number of patients that rated higher” value came out at 1 patients, the “number of patients that rated lower” value came out at 4 patients, the “number of patients that rated unchanged level” value was determined as 2 patients and the “relative position RP” value was “RP −0.27”. For the same compound, in experiment [9], the “number of patients that rated higher pain intensity after treatment” value was found to be 5 patients, the “number of patients that rated lower pain intensity after treatment” value amounted to 9 patients, the “patients that rated higher pain intensity after treatment” value is given as 25% and the “patients that rated lower pain intensity after treatment” value was determined as 40%. In addition, the “patients that rated unchanged level” value in experiment [9] is given as 35%. In addition, in experiment [10], the “number of patients that rated lower sporadic insomnia” value amounted to 15 patients, the “number of patients that rated unchanged intensity” value stood at 9 patients, the “patients that rated lower sporadic insomnia” value was determined as 62% and the “patients that rated unchanged intensity” value is 38%. The “relative position RP” value in experiment [10] (setting [12]) was −0.37 (95% CI −0.49 to −0.25). Moreover, the “oxidative response (slope of DCFDA fluorescence intensity increase) after menadione” value in [11] is reported as “relevant reduction in the kinetics of this intensity increase”. Further, the “oxidative response (slope of DCFDA fluorescence intensity increase) after menadione” value in experiment [1] is listed as “relevant reduction in the kinetics of this intensity increase”.
As for `C[Se]CC[C@H](N)C(=O)O` [SeMet, selenomethionine], the “oxidative response (slope of DCFDA fluorescence intensity increase) after menadione” value in experiment [1] was “unfavorable pro-oxidant effect”.

Values taken from patent US12636271B2, “Combination comprising N-acetyl-L-cysteine and its use” (IASOMAI AB, priority 2011, dated 2026).
